Test results as given in paper PMC9304322, “Targeting retinoic acid receptor alpha-corepressor interaction activates chaperone-mediated autophagy and protects against retinal degeneration” (Nature Communications, 2022).
Several values for one entry are separate records, joined by “and”; a condition that tells them apart may be missing. Equal entries are not always repeated.

Tests used:
[1] = system: NIH3T3 stably expressing the KFERQ-PS-Dendra; test: CMA activity, KFERQ-PS-Dendra fluorescent reporter in NIH3T3 mouse fibroblasts; format: cell-based; parameters: CMA activity (Fig. 1d), MEAN / CMA activity (Fig. 1e-g), mean / CMA activity (Fig. 1d), individual experiments / CMA activity, mean (Fig. S2c, second panel) / CMA activity, mean (Fig. S2c, first panel) / CMA activity, mean (Fig. S2c, third panel): unit not given here; details: for CMA activity (Fig. 1e-g), mean: n = 4
Method: (§1) Cells were transduced with lentivirus carrying the KFERQ-PS-Dendra reporter as before. Cells were photoactivated by exposure to a 3.5 mA (current constant) light emitting diode (LED: Norlux, 405 nm) for 3 min and then plated in glass-bottom 96 well plates. At the desired times, cells were fixed with 4% PFA and imaged using high-content microscopy (Operetta system, Perkin Elmer). Images were quantified using the manufacturer’s software in a minimum of 1,200 cells in 9 independent fields per well. […] This was particularly important in the case of primary human cells where the efficiency of transduction was ~65%. To avoid confounding effects for drug-induced changes in cell volume or adherence to the plate that could bring a fraction of the cells per field outside of focus, we set a threshold to count only […] that have at least 1/10 of the average number of […] detected in the untreated wells for each cell type (3–4 puncta/cell in the case of NIH3T3 and N2a cells and 5 puncta/cell in primary human fibroblasts).

[2] = system: primary human fibroblast expressing the KFERQ-PS-Dendra reporter; test: CMA activity, KFERQ-PS-Dendra reporter in primary human fibroblasts; format: cell-based; parameters: key to CMA activity, mean (Fig. S2c): puncta per cell
Method: as §1

NIH3T3 = test: Intracellular proteolysis of long half-life proteins; format: cell-based, mouse
Method: Confluent cells were labelled with [^3H]leucine (2μCi/ml) (NEN-PerkinElmer Life Sciences) for 48 h and then extensively washed and maintained in medium with an excess of unlabeled leucine. Proteolysis was calculated from aliquots of the medium taken at different times and precipitated in trichloroacetic acid, as the amount of acid-precipitable radioactivity transformed to acid-soluble radioactivity at each time. Where indicated cell were treated during the chase with […] leupeptin (Sigma, #108975) and […] NH4Cl (to determine lysosomal degradation) or with 100 μm MRT 68921 dihydrochloride (Tocris, #5780) (to determine macroautophagy degradation).

[3] = system: neuroblastoma cell line N2a expressing the KFERQ-PS-Dendra reporter; test: CMA activity, KFERQ-PS-Dendra reporter in N2a cells; format: cell-based, mouse; parameters: CMA activity, mean (Fig. S2a): unit not given here
Method: as §1

In the case of Cc1ccc(C2=Nc3ccc(Cl)cc3OC2)cc1 [AR7, reference compound], the “CMA activity (Fig. 1d), MEAN” value ([1]; 20 μM of each compound, n = 3 independent experiments) is reported as 1.943, the “CMA activity (Fig. 1d), individual experiments” value ([1]; 20 μM of each compound, single experiments) is reported as 1.682 and 2.334 and 1.814 and the “CMA activity (Fig. 1e-g), mean” value ([1]; 12h, concentration 0.02 (unit not given)) is reported as 12.0505. For the same compound, the “CMA activity (Fig. 1e-g), mean” value ([1]; 12h, concentration 0.2) was 11.7342, the “CMA activity (Fig. 1e-g), mean” value ([1]; 12h, concentration 2) was 11.803 and the “CMA activity (Fig. 1e-g), mean” value ([1]; 12h, concentration 5) was 19.8949. For the same compound, the “CMA activity (Fig. 1e-g), mean” value ([1]; 12h, concentration 10) was 20.5334, the “CMA activity (Fig. 1e-g), mean” value ([1]; 12h, concentration 20) was 21.2219 and the “CMA activity (Fig. 1e-g), mean” value ([1]; 12h, concentration 30) was 22.9989. For the same compound, the “CMA activity (Fig. 1e-g), mean” value ([1]; 12h, concentration 40) was 22.6487, the “CMA activity (Fig. 1e-g), mean” value ([1]; 12h, concentration 50) was 26.5841 and the “CMA activity (Fig. 1e-g), mean” value ([1]; 24h, concentration 0.02) was 9.918. For the same compound, the “CMA activity (Fig. 1e-g), mean” value ([1]; 24h, concentration 0.2) was 11.4731, the “CMA activity (Fig. 1e-g), mean” value ([1]; 24h, concentration 2) was 13.7252 and the “CMA activity (Fig. 1e-g), mean” value ([1]; 24h, concentration 5) was 18.3275. For the same compound, the “CMA activity (Fig. 1e-g), mean” value ([1]; 24h, concentration 10) was 23.1811, the “CMA activity (Fig. 1e-g), mean” value ([1]; 24h, concentration 20) was 24.726 and the “CMA activity (Fig. 1e-g), mean” value ([1]; 24h, concentration 30) was 25.9835. The “CMA activity (Fig. 1e-g), mean” value ([1]; 24h, concentration 40) was 28.2999, the “CMA activity (Fig. 1e-g), mean” value ([1]; 24h, concentration 50) was 27.6884 and the “CMA activity (Fig. 1h-j), mean, untreated (0) = 1” value (“CMA activity (Fig. 1h-j), mean” for short) ([1]; concentration 0.2, 12+12w (12 h, then 12 h after washing out)) was 0.9356. The “CMA activity (Fig. 1h-j), mean” value ([1]; concentration 0.2, 12h) was 1.057, the “CMA activity (Fig. 1h-j), mean” value ([1]; concentration 0.2, 24h) was 0.9789 and the “CMA activity (Fig. 1h-j), mean” value ([1]; concentration 2, 12+12w) was 0.9942. The “CMA activity (Fig. 1h-j), mean” value ([1]; concentration 2, 12h) was 1.064, the “CMA activity (Fig. 1h-j), mean” value ([1]; concentration 2, 24h) was 1.171 and the “CMA activity (Fig. 1h-j), mean” value ([1]; concentration 5, 12+12w) was 1.015. For the same compound, the “CMA activity (Fig. 1h-j), mean” value ([1]; concentration 5, 12h) was 1.7927, the “CMA activity (Fig. 1h-j), mean” value ([1]; concentration 5, 24h) was 1.564 and the “CMA activity (Fig. 1h-j), mean” value ([1]; concentration 10, 12+12w) was 0.9858. For the same compound, the “CMA activity (Fig. 1h-j), mean” value ([1]; concentration 10, 12h) was 1.85, the “CMA activity (Fig. 1h-j), mean” value ([1]; concentration 10, 24h) was 1.978 and the “CMA activity (Fig. 1h-j), mean” value ([1]; concentration 20, 12+12w) was 0.9968. The “CMA activity (Fig. 1h-j), mean” value ([1]; concentration 20, 12h) was 1.912, the “CMA activity (Fig. 1h-j), mean” value ([1]; concentration 20, 24h) was 2.11 and the “CMA activity (Fig. 1h-j), mean” value ([1]; concentration 30, 12+12w) was 1.224. For the same compound, the “CMA activity (Fig. 1h-j), mean” value ([1]; concentration 30, 12h) was 2.072, the “CMA activity (Fig. 1h-j), mean” value ([1]; concentration 30, 24h) was 2.217 and the “CMA activity, mean (Fig. S2c)” value ([2]; concentration 0.02) was 24.0456. For the same compound, the “CMA activity, mean (Fig. S2c)” value ([2]; concentration 0.2) was 28.2677, the “CMA activity, mean (Fig. S2c)” value ([2]; concentration 2) was 18.5469 and the “CMA activation in human cells” value ([2]; in words) was “very discrete”. For the same compound, the “duration of the increase in degradation of long-lived proteins” value (NIH3T3; NIH3T3, 10 μM) was “sustained only for the first 12 h”, the “Lysosomal proteolysis, Mean (Fig. S3c)” value (NIH3T3; Time 6) was 3.18 and the “Lysosomal proteolysis, Mean (Fig. S3c)” value (NIH3T3; Time 12) was 5.83. For the same compound, the “CMA activity, mean relative to concentration 0 = 1 (Fig. S2b)” value ([3]; 12+12w, concentration 0.2) was 0.9288, the “CMA activity, mean relative to concentration 0 = 1 (Fig. S2b)” value ([3]; 12+12w, concentration 2) was 0.9525 and the “CMA activity, mean relative to concentration 0 = 1 (Fig. S2b)” value ([3]; 12+12w, concentration 5) was 0.9471. The “CMA activity, mean relative to concentration 0 = 1 (Fig. S2b)” value ([3]; 12+12w, concentration 10) was 0.8786, the “CMA activity, mean relative to concentration 0 = 1 (Fig. S2b)” value ([3]; 12+12w, concentration 20) was 0.875 and the “CMA activity, mean relative to concentration 0 = 1 (Fig. S2b)” value ([3]; 12+12w, concentration 30) was 0.9362. For the same compound, the “CMA activity, mean (Fig. S2a)” value ([3]; 12h, concentration 0.02) was 5.372, the “CMA activity, mean (Fig. S2a)” value ([3]; 12h, concentration 0.2) was 5.3273 and the “CMA activity, mean relative to concentration 0 = 1 (Fig. S2b)” value ([3]; 12h, concentration 0.2) was 1.02. For the same compound, the “CMA activity, mean (Fig. S2a)” value ([3]; 12h, concentration 2) was 5.394, the “CMA activity, mean relative to concentration 0 = 1 (Fig. S2b)” value ([3]; 12h, concentration 2) was 1.033 and the “CMA activity, mean (Fig. S2a)” value ([3]; 12h, concentration 5) was 6.224. The “CMA activity, mean relative to concentration 0 = 1 (Fig. S2b)” value ([3]; 12h, concentration 5) was 1.192, the “CMA activity, mean (Fig. S2a)” value ([3]; 12h, concentration 10) was 5.944 and the “CMA activity, mean relative to concentration 0 = 1 (Fig. S2b)” value ([3]; 12h, concentration 10) was 1.138. The “CMA activity, mean (Fig. S2a)” value ([3]; 12h, concentration 20) was 6.2128, the “CMA activity, mean relative to concentration 0 = 1 (Fig. S2b)” value ([3]; 12h, concentration 20) was 1.19 and the “CMA activity, mean (Fig. S2a)” value ([3]; 12h, concentration 30) was 6.043. For the same compound, the “CMA activity, mean relative to concentration 0 = 1 (Fig. S2b)” value ([3]; 12h, concentration 30) was 1.157, the “CMA activity, mean (Fig. S2a)” value ([3]; 12h, concentration 40) was 6.596 and the “CMA activity, mean (Fig. S2a)” value ([3]; 12h, concentration 50) was 6.394. For the same compound, the “CMA activity, mean (Fig. S2a)” value ([3]; 12h, concentration 60) was 6.271, the “CMA activity, mean (Fig. S2a)” value ([3]; 24h, concentration 0.02) was 5.48 and the “CMA activity, mean (Fig. S2a)” value ([3]; 24h, concentration 0.2) was 5.351. The “CMA activity, mean relative to concentration 0 = 1 (Fig. S2b)” value ([3]; 24h, concentration 0.2) was 0.8724, the “CMA activity, mean (Fig. S2a)” value ([3]; 24h, concentration 2) was 5.879 and the “CMA activity, mean relative to concentration 0 = 1 (Fig. S2b)” value ([3]; 24h, concentration 2) was 0.9586. The “CMA activity, mean (Fig. S2a)” value ([3]; 24h, concentration 5) was 6.0743, the “CMA activity, mean relative to concentration 0 = 1 (Fig. S2b)” value ([3]; 24h, concentration 5) was 0.9904 and the “CMA activity, mean (Fig. S2a)” value ([3]; 24h, concentration 10) was 6.105. For the same compound, the “CMA activity, mean relative to concentration 0 = 1 (Fig. S2b)” value ([3]; 24h, concentration 10) was 0.9953, the “CMA activity, mean (Fig. S2a)” value ([3]; 24h, concentration 20) was 6.658 and the “CMA activity, mean relative to concentration 0 = 1 (Fig. S2b)” value ([3]; 24h, concentration 20) was 1.086. For the same compound, the “CMA activity, mean (Fig. S2a)” value ([3]; 24h, concentration 30) was 7.455, the “CMA activity, mean relative to concentration 0 = 1 (Fig. S2b)” value ([3]; 24h, concentration 30) was 1.2156 and the “CMA activity, mean (Fig. S2a)” value ([3]; 24h, concentration 40) was 8.122. The “CMA activity, mean (Fig. S2a)” value ([3]; 24h, concentration 50) was 8.426 and the “CMA activity, mean (Fig. S2a)” value ([3]; 24h, concentration 60) was 8.941.
